Results as given in paper PMC6630718, “Discovery of Novel UV-Filters with Favorable Safety Profiles in the 5-Arylideneimidazolidine-2,4-dione Derivatives Group” (Molecules, 2019).
Values joined by “and” are separate entries in the source; they are usually repeats but may differ in a detail not shown here. Equal values may be shown once. Read-outs that look alike come from different tables or passages of the source.

Legend:
[1] = Ames MPF Penta 2 microplate mutagenicity assay, E. coli; assay type: cell-based; conditions: Escherichia coli, read-out: FIB (fold induction over baseline)
Description: The assay is a liquid microplate modification of the traditional Salmonella test. During the procedure, bacteria are exposed to different concentrations of a test compound for 90 min in a medium containing sufficient histidine (S. typhimurium) or tryptophan (E. coli) to support cell divisions. Then, the cultures are diluted in pH indicator medium lacking histidine or tryptophan and aliquoted into 48 wells of a 384-well plate. Within 48 hours, cells that have undergone reversion to amino acid prototrophy will grow into colonies. Bacterial metabolism reduces pH of the medium, changing the color of that well from purple to yellow (https://www.xenometrix.ch).
The following strains were used in the study: S. typhimurium TA98, TA100, TA1535, TA1537 and E. coli wp2 uvrA[pKM101]. TA100, TA1535 and E. coli strains are used for the detection of base substitution mutations, whereas TA98 and TA1537 are utilized for the detection of frameshift mutations. S. typhimurium strains have GC base pairs, whereas E. coli strain has AT base pair at their primary reversion site and detect certain oxidizing mutagens, cross-linking agents and hydrazines.
The test procedure provided by Xenometrix (https://www.xenometrix.ch) and described earlier was followed. Briefly, the bacterial strains were grown overnight in exposure medium and exposed to test compounds 4g and 3b in 24-well plates for 90 min at 37 °C with agitation in the absence (–S9) or presence (+S9) of 4.5% phenobarbital/ β-naphthoflavone-induced rat liver S9. Compounds 4g and 3b were dissolved in DMSO and tested at final concentrations of 0.1, 0.2 and 0.5 mM. After the preincubation, the cultures were diluted in the indicator medium and the contents of each 24-well culture were distributed into 48 wells on a 384-well plate and incubated further for 48 h at 37 °C without agitation. After the exposure, the number of wells containing bacteria was scored by eye for yellow wells. Positive and negative controls were included in the assay, and all doses were done in triplicate.
Pure DMSO was used as the negative control.
The fold increase of revertants relative to the solvent control was determined by dividing the mean number of positive wells at each dose by the solvent control at baseline. The solvent control at baseline was defined as the mean number of positive wells in the solvent control plus one standard deviation (SD). When an increase of more than 2-fold relative to the baseline at more than one dose with a dose–response is observed the sample is classified as positive, whereas when no response >2 times the baseline and no dose–response is stated the sample is negative.

[2] = Solubility in cosmetic solvents / macrogol formulations; assay type: physicochemical; conditions: typical cosmetic solvents / formulations used
Text: The composition of formulations and concentration of tested compounds were based on their limited solubility. N-monosubstituted compounds 2a–2e were insoluble at desirable concentrations in the typical solvents used in cosmetic formulations such as alcohols, triacetin, surfactants, and co-surfactants. To dissolve compounds 2a and 2b before incorporation to the formulation DMSO: Tween 20 (1:9 w/w) was used, for less soluble 2c–2e it was necessary to use DMSO alone as solvent. […] Thus the detailed composition of the formulations is as follows: F1–Tween 20 43.2%, PEG-400 25%, PEG-1500 25%, Triacetin 4.8%, tested compound 2%; F2–Tween 20 43.2%, PEG-400 25%, PEG-1500 25%, DMSO 4.8%, tested compound 2%; F3–PEG-400 25%, PEG-1500 25%, DMSO 48%, tested compound 2%. Considering the disadvantages of currently reported macrogol formulations and the low concentration achieved for the tested compounds (2%), we plan to work on cosmetic emulsions containing the most promising derivatives at higher concentrations as well as required excipients including preservatives, antioxidants, etc. This research will be carried out in the near future.

[3] = Ultraviolet spectroscopy in methanol solutions; assay type: physicochemical; conditions: for Absorption Range: scan range 290–400 nm
Procedure, shortened: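 Spectra recorded from 290–400 nm in methanol (50 or 25 μM) in 1 cm quartz cuvettes. εmax taken as the slope of absorbance vs. concentration over 10–50 μM or 2.5–30 μM.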

[4] = Photostability in macrogol formulations on PMMA plates (solar light simulator); assay type: physicochemical; conditions: for % of Initial AUC / % of Initial SPFin vitro / % of Initial UVA PF: after 1 h irradiation at 500 W/m^2, formulation F1
Procedure, shortened: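 Macrogol formulations (2% w/w) applied at 1.3 mg/cm² on PMMA plates were irradiated 1 h at 500 W/m² (218 kJ/m² UV) in a solar simulator with <290 nm cut-off and IR block. SPFin vitro, UVA PF and AUC were compared before and after exposure, with methanol washes analysed by UPLC-MS/MS, in duplicate.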

[5] = E. coli wp2 uvrA[pKM101] without S9 (–S9), E. coli WP2, –S9, 0.1 mM
[6] = E. coli wp2 uvrA[pKM101] without S9 (–S9), E. coli WP2, –S9, 0.2 mM
[7] = E. coli wp2 uvrA[pKM101] without S9 (–S9), E. coli WP2, –S9, 0.5 mM

Structure (SMILES)	fold induction at 90 min, 0.1 mM [1, 5]	fold induction at 90 min, 0.2 mM [1, 6]	fold induction at 90 min, 0.5 mM [1, 7]	fold induction at 90 min, 0.1 mM ([1]; E. coli WP2, +S9, 0.1 mM)	fold induction at 90 min, 0.2 mM ([1]; E. coli WP2, +S9, 0.2 mM)	fold induction at 90 min, 0.5 mM ([1]; E. coli WP2, +S9, 0.5 mM)	solubility (in words) [2]	εmax [3] [M⁻¹ cm⁻¹]	λmax [3] [nm]	Absorption Range [3]	% of Initial AUC [4]	% of Initial SPFin vitro [4]	% of Initial UVA PF [4]	photostability (in words) ([4]; macrogol formulation)	photoisomer in post-irradiation chromatogram ([4]; macrogol formulation, UPLC-MS/MS) [%]	new photoproduct (besides photoisomer), relative peak area ([4]; macrogol formulation, post-irradiation chromatogram) [%]
CCOC(=O)CN1C(=O)/C(=C/c2ccc(OC)cc2)N(CC(=O)OCC)C1=O [Compound 3b, Diethyl 2,2′-((Z)-4-(4-methoxybenzylidene)-2,5-dioxoimidazolidine-1,3-diyl)diacetate]	0.3	0.7	0.3	0.7	0.6	0.4	very good solubility	16310	318	290–362 nm	84.67% and 76.50%	80.46% and 72.69%	87.04% and 84.08%	very good	32.1	2.4
CCOC(=O)CN1C(=O)/C(=C/C=C/c2ccc(OC)cc2)N(CC(=O)OCC)C1=O [Compound 4g, Diethyl 2,2′-((Z)-4-((E)-3-(4-methoxyphenyl)allylidene)-2,5-dioxoimidazolidine-1,3-diyl)diacetate]	0.3	1.3	1.3	0.6	1	0.7	–	54996	379	290–400 nm	51.98%	86.29%	34.39%	favorable photostability	–	–
